Paper PMC5862576, “Mitochondrial fission as a driver of stemness in tumor cells: mDIVI1 inhibits mitochondrial function, cell migration and cancer stem cell (CSC) signalling” (Oncotarget, 2018)

Key:
Format in all cases: cell-based, Human
MCF7 cells [1] = assay: DAPI viability of cells in suspension (anoikis resistance, FACS)
Protocol: Following mDIVI1 treatment, MCF7 cells grown either in suspension or as monolayers were analysed for their expression of CD24 and CD44. The surviving fraction after 2 days and 5 days of growth was analyzed by FACS. MCF7 cells were either trypsinised or spun down and trypsinised and incubated with CD24 (IOTest CD24-PE, Beckman Coulter) and CD44 (APC mouse anti-human CD44, 559942, BD Pharmingen) for 15 minutes on ice. Cells were then rinsed twice in PBS, spun down, and resuspended with DAPI dye (D1306, Molecular probes) at 3 μM in PBS for 10 minutes. Samples were then analyzed by FACS (Fortessa, BD Bioscence). Only the live cell population, identified using the DAPI staining, was analyzed for CD24/CD44 expression. Data were analyzed using FlowJo software.

MCF7 cells [2] = assay: Label-free semi-quantitative proteomics; conditions: 10 µM, 48 hours vs vehicle
Protocol: HPLC gradient grade acetonitrile was obtained from Fisher Scientific. Briefly, 2 × 10^6 MCF7 cells were seeded in 15 cm plates until cells were attached. […] As control, vehicle-treated cells were processed in parallel. After 48 hours of treatment, cells were lysed in RIPA buffer (R0278, Sigma) and kept at 4° C for 20 minutes with rotation. Lysates were cleared by centrifugation for 10 minutes at 10,000 × g and supernatants were collected and kept frozen at −80° C. Lysate samples were thawed to room temperature and their concentrations equalised to 1 µg/µL (50 µL volume) with RIPA buffer, and further processed for trypsin digestion by sequential reduction of disulphide bonds with TCEP and alkylation with MMTS. Briefly, 1 µL benzonase (Novagen) was added to the 50 µL aliquot and placed on ice for 15 minutes. The sample was then taken to dryness using a SpeedVac, and resuspended in 22.5 µL trypsin reaction buffer (40 mM ammonium bicarbonate and 9% acetonitrile). One µL of 50 mM TCEP solution was added to each sample, mixed briefly and placed on a heater block at 60° C for 60 minutes. After cooling to room temperature, 0.5 µL of 200 mM MMTS solution was added to each sample and allowed to react for 15 minutes. Trypsin was added in two waves to ensure efficient digestion of the sample. Firstly, 20 µg of sequencing grade trypsin was resuspended in 1800 µL of trypsin reaction buffer; 225 µL of this solution were added to each sample for digestion, and the reactions were left at 37° C overnight with shaking (600 rpm). The following morning, a further aliquot of trypsin was added. Two ml of trypsin reaction buffer was added to […] of sequencing grade trypsin; 250 µL of this solution were added to each of the digest samples from overnight, and the reactions were left at 37° C for 4 hours with shaking (600 rpm). […] The digested solution was diluted in 7.5 mL of acetonitrile containing 0.3% formic acid. PolyhydroxyethylA SPE 12 µm, 300A, 300mg cartridges (obtained from PolyLC) were used for the HILIC procedure. Prior to use, cartridges required an overnight soak in 50 mM formic acid followed by rinsing with water the following day. […] The diluted samples were loaded onto the cartridges and washed with a further 10 mL Buffer A. Finally, peptides were eluted in 1 mL Buffer C (9 parts Buffer B plus 1 part Buffer A) and the samples dried on a Speedvac to remove organic solvent prior to LC-MS/MS analysis. Lyophilised digests were resuspended in 50 µL of 0.1% TFA to give an approximate concentration of 1 µg/µL. One µL injection volumes were used throughout resulting in an on-column peptide loading of approximately 1 µg per injection. Analysis was performed in quintuplicate for each sample. All LC-MS/MS analyses were performed on an LTQ Orbitrap XL mass spectrometer coupled to an Ultimate 3000 RSLCnano system (Thermo Scientific). One µL injection volumes were used throughout and samples loaded directly onto the analytical column, PepMap RSLC C18, 2 µm × 75 µm id × 50 cm (Thermo Scientific). The composition (v/v) of LC buffers were as follows; […] Peptides were loaded directly onto the column at a flow rate of 400 nl/min with an initial mobile phase composition of 1% B. […] The column was then allowed to re-equilibrate to 1% B for a total analysis time of 74 minutes. The mass spectrometer was instructed to perform data dependent acquisition on the top six precursor ions, which were measured in the Orbitrap FTMS detector over the mass range 370–1200 m/z, at a nominal resolution of 60,000. […] Gas-phase fractionation was performed on the five replicate injections such that MS/MS data was collected for precursor ion range 370–494 m/z Injection 1, 494–595 m/z Injection 2, 595–685 m/z Injection 3, 685–817 m/z Injection 4 and 817–1200 m/z Injection 5. Xcalibur raw data files acquired on the LTQ-Orbitrap XL were directly imported into Progenesis LCMS software (Waters Corp) for peak detection and alignment. Data were analysed using the Mascot search engine. […]

MCF7 cells [3] = assay: Mitochondrial mass quantification (MitoTracker Deep Red, flow cytometry); conditions: 50 µM, 5 days, vs vehicle
Protocol: To measure mitochondrial mass, cells were stained with MitoTracker Deep Red (M22426, Invitrogen). Briefly, 2 × 10^5 MCF7 cells per well were seeded in 6-well plates. When cells were attached, mDIVI1 and vehicle treatments were added for 2 days or 5 days in triplicate. Cells were then incubated for 15 min at 37° C with the 10 nM Mitotracker Deep Red probe diluted in PBS ([…], Sigma). All subsequent steps were performed in the dark. Cells were washed in PBS, harvested, and re-suspended in PBS. Mitotracker signal was quantified as mean fluorescent intensity of the viable cell population in a Fortessa flow cytometer (BD Bioscience). Results were analyzed using FlowJo software.

MCF7 cells [4] = assay: Scratch assay (wound closure); conditions: 48 hours
Protocol: A hundred thousand MCF7 cells per well were seeded in 12-well plates. When cells were attached, a horizontal scratch was performed using the tip of a pipette. Immediately after, the media was removed and either fresh vehicle-containing media or mDIVI1-containing media were added to the cells for 48 hours. Four replicates were used for each condition. Cells were incubated in a 5% CO2 atmosphere at 37° C in an Incucyte ZOOM System (Essen Bioscience). The wound closure was monitored by taking pictures of each well every 4 hours. At the end of the treatment, pictures of the wells at 0 and 48 hours were analysed using ImageJ software to calculate wound closure according to the following formula: Percentage wound closure=[(wound area0h−wound area48h)/wound area0h]×100

COc1cc(-n2c(=S)[nH]c3ccccc3c2=O)c(Cl)cc1Cl [mDIVI1, 3-(2,4-Dichloro-5-methoxyphenyl) 2,3-dihydro 2-thioxo-4(1H) quinazolinone]
cell viability under anchorage-independent conditions (DAPI) vs vehicle (MCF7 cells [1]): no significant differences
BMP7 expression change (proteomics) (MCF7 cells [2]): -47.17
CELSR2 expression change (proteomics) (MCF7 cells [2]): −1.6
EPCAM expression change (proteomics) (MCF7 cells [2]): −1.58
EphA2 expression change (proteomics) (MCF7 cells [2]): -1.74
F11 receptor expression change (proteomics) (MCF7 cells [2]): −1.70
LAMP1 upregulation (proteomics) (MCF7 cells [2]): 2.83
STAT3 expression change (proteomics) (MCF7 cells [2]): -1.83
ZO-1 expression change (proteomics) (MCF7 cells [2]): −1.62
collagen type IV upregulation (proteomics) (MCF7 cells [2]): 1.9 fold
desmoplakin expression change (proteomics) (MCF7 cells [2]): −4.58
junction plakoglobin expression change (proteomics) (MCF7 cells [2]): −1.65
keratin 8 expression change (proteomics) (MCF7 cells [2]): −5.24
keratin 18 expression change (proteomics) (MCF7 cells [2]): −12.21
Hexokinase 1 (HK1) change in expression (MCF7 cells [2]; Glycolysis): ↓Infinite
Mitotracker Deep Red mean fluorescence intensity (mitochondrial mass) (MCF7 cells [3]): significantly higher
reduction of percentage of wound closure vs vehicle (MCF7 cells [4]; 10 µM): 14%
reduction of percentage of wound closure vs vehicle (MCF7 cells [4]; 50 µM): 44%
